Consider 30 compounds from US10183950B2, “Thienopyrimidine inhibitors of atypical protein kinase C” (Cancer Research Technology Limited, priority 2011, dated 2019).

For the test, the target named is T1, full-length human PKCι (Homo sapiens, UniProt P41743).
T1 construct: Recombinant, full-length human PKCι expressed in Sf21 insect cells is also commercially available; purchased; host or cells: Sf21 insect cells
T1 sequence (P41743 1-596): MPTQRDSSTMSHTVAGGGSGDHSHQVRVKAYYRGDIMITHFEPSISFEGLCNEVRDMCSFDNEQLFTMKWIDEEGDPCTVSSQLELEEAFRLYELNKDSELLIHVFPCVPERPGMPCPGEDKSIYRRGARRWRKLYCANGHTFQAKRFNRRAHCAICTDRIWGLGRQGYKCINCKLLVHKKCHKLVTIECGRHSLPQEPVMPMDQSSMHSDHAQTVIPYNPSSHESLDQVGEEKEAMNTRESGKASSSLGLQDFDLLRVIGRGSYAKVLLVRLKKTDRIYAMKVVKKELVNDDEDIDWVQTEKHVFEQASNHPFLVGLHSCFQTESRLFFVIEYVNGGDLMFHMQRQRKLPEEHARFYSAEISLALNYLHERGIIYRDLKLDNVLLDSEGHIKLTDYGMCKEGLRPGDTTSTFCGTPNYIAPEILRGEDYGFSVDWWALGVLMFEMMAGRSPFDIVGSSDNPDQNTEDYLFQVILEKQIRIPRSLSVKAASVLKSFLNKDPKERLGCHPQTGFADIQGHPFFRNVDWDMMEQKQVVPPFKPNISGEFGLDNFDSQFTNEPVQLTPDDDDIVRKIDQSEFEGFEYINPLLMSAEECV
The experiment in a line: PKCι IC50 IMAP fluorescence polarisation assay, full-length enzyme. Format: biochemical. As to conditions: full length PKCi at 15 μM ATP; read-out: IC50 in IMAP assay against full length PKCi. On the technique in general: In fluorescence polarisation assays a small probe gives low polarisation when free and higher when bound to something large.

Each structure is given as a SMILES string.

With `Cc1cc(Nc2csc3c(NC[C@@H](N)Cc4ccccc4)nc(-c4ccncc4)nc23)no1` [compound 490, N*4*-((S)-2-Amino-3-phenyl-propyl)-N*7*-(5-methyl-isoxazol-3-yl)-2-pyridin-4-yl-thieno[3,2-d]pyrimidine-4,7-diamine], the IC50 (commonly the concentration at which inhibition is half-maximal) was less than 100 nM.
As to `N[C@H](CNc1nc(-c2ccncc2F)nc2c(Nc3ccccc3)csc12)Cc1ccccc1` [compound 491, N*4*-((S)-2-Amino-3-phenyl-propyl)-2-(3-fluoro-pyridin-4-yl)-N*7*-phenyl-thieno[3,2-d]pyrimidine-4,7-diamine], the half-maximal inhibitory concentration (IC50) fell in the range of 1000 to 10000 nM.
For `Cc1cccc(Nc2csc3c(N[C@@H]4CCNC4)nc(-c4ccncc4F)nc23)c1` [compound 492, 2-(3-Fluoro-pyridin-4-yl)-N*4*-(R)-pyrrolidin-3-yl-N*7*-m-tolyl-thieno[3,2-d]pyrimidine-4,7-diamine] the value was 10000 to 40000 nM; for `Fc1ccc(Nc2csc3c(N[C@@H]4CCNC4)nc(-c4ccncc4F)nc23)cc1` [compound 493, N*7*-(4-Fluoro-phenyl)-2-(3-fluoro-pyridin-4-yl)-N*4*-(R)-pyrrolidin-3-yl-thieno[3,2-d]pyrimidine-4,7-diamine], 10000 to 40000 nM; for `Fc1cnccc1-c1nc(N[C@@H]2CCNC2)c2scc(Nc3cccnc3)c2n1` [compound 494, 2-(3-Fluoro-pyridin-4-yl)-N*7*-pyridin-3-yl-N*4*- (R)-pyrrolidin-3-yl-thieno[3,2-d]pyrimidine-4,7-diamine], 10000 to 40000 nM.
Regarding `Fc1cnccc1-c1nc(N[C@@H]2CCNC2)c2scc(Nc3ccccn3)c2n1` [compound 495, 2-(3-Fluoro-pyridin-4-yl)-N*7*-pyridin-2-yl-N*4*- (R)-pyrrolidin-3-yl-thieno[3,2-d]pyrimidine-4,7-diamine], the IC50 is 10000 to 40000 nM.
For the compound `Cc1cc(Nc2csc3c(N[C@@H]4CCNC4)nc(-c4ccncc4F)nc23)no1` [compound 496, 2-(3-Fluoro-pyridin-4-yl)-N*7*-(5-methyl-isoxazol-3-yl)-N*4*-(R)-pyrrolidin-3-yl-thieno[3,2-d]pyrimidine-4,7-diamine], the IC50 fell in the range of 10000 to 40000 nM.
For `Fc1cnccc1-c1nc(N[C@@H]2CCNC2)c2scc(Nc3ccon3)c2n1` [compound 497, 2-(3-Fluoro-pyridin-4-yl)-N*7*-isoxazol-3-yl-N*4*- (R)-pyrrolidin-3-yl-thieno[3,2-d]pyrimidine-4,7-diamine] the value was 10000 to 40000 nM; for `Cc1ccccc1Nc1csc2c(N[C@@H]3CCNC3)nc(-c3ccncc3F)nc12` [compound 498, 2-(3-Fluoro-pyridin-4-yl)-N*4*-(R)-pyrrolidin-3-yl-N*7*-o-tolyl-thieno[3,2-d]pyrimidine-4,7-diamine], 1000 to 10000 nM; for `Fc1cccc(Nc2csc3c(N[C@@H]4CCNC4)nc(-c4ccncc4F)nc23)c1` [compound 499, N*7*-(3-Fluoro-phenyl)-2-(3-fluoro-pyridin-4-yl)-N*4*-(R)-pyrrolidin-3-yl-thieno[3,2-d]pyrimidine-4,7-diamine], 1000 to 10000 nM.
For `Fc1ccccc1Nc1csc2c(N[C@@H]3CCNC3)nc(-c3ccncc3F)nc12` [compound 500, N*7*-(2-Fluoro-phenyl)-2-(3-fluoro-pyridin-4-yl)-N*4*-(R)-pyrrolidin-3-yl-thieno[3,2-d]pyrimidine-4,7-diamine] the value was 100 to 1000 nM; for `N[C@H](CNc1nc(-c2ccncc2F)nc2c(C#CCCO)csc12)Cc1ccccc1` [compound 501, 4-[4-((S)-2-Amino-3-phenyl-propylamino)-2-(3-fluoro-pyridin-4-yl)-thieno[3,2-d]pyrimidin-7-yl]-but-3-yn-1-ol], 100 to 1000 nM; for `Cc1c(C#CC(C)(C)O)sc2c(N[C@@H]3CCNC3)nc(-c3ccncc3)nc12` [compound 502, 2-Methyl-4-[7-methyl-2-pyridin-4-yl-4-((R)-pyrrolidin-3-ylamino)-thieno[3,2-d]pyrimidin-6-yl]-but-3-yn-2-ol], 1000 to 10000 nM.
For `Cc1sc2c(N[C@@H]3CCNC3)nc(-c3ccncc3)nc2c1C#CC(C)(C)O` [compound 503, 2-Methyl-4-[6-methyl-2-pyridin-4-yl-4-((R)-pyrrolidin-3-ylamino)-thieno[3,2-d]pyrimidin-7-yl]-but-3-yn-2-ol], the IC50 was in the range of 100 to 1000 nM.
On to `Cc1sc2c(NC[C@@H](N)Cc3ccccc3)nc(-c3ccncc3)nc2c1C#CC(C)(C)O` [compound 504, 4-[4-((S)-2-Amino-3-phenyl-propylamino)-6-methyl-2-pyridin-4-yl-thieno[3,2-d]pyrimidin-7-yl]-2-methyl-but-3-yn-2-ol], for which the concentration for half-maximal inhibition (IC50) is less than 100 nM.
Consider `CC(C)(O)C#Cc1c(C(C)(C)C)sc2c(NC[C@@H](N)Cc3ccccc3)nc(-c3ccncc3)nc12` [compound 505, 4-[4-((S)-2-Amino-3-phenyl-propylamino)-6-tert-butyl-2-pyridin-4-yl-thieno[3,2-d]pyrimidin-7-yl]-2-methyl-but-3-yn-2-ol], for which the IC50 was in the range of 1000 to 10000 nM.
For `N[C@H](CNc1nc(-c2ccncc2F)nc2c(C#CCO)csc12)Cc1ccccc1` [compound 506, 3-[4-((S)-2-Amino-3-phenyl-propylamino)-2-(3-fluoro-pyridin-4-yl)-thieno[3,2-d]pyrimidin-7-yl]-prop-2-yn-1-ol] the value was less than 100 nM; for `N[C@H](CNc1nc(-c2ccncc2F)nc2c(C#CC3(O)CCC3)csc12)Cc1ccccc1` [compound 507, 1-[4-((S)-2-Amino-3-phenyl-propylamino)-2-(3-fluoro-pyridin-4-yl)-thieno[3,2-d]pyrimidin-7-ylethynyl]-cyclobutanol], 100 to 1000 nM.
Under `C[C@H](O)C#Cc1csc2c(NC[C@@H](N)Cc3ccccc3)nc(-c3ccncc3F)nc12` [compound 508, (S)-4-[4-((S)-2-Amino-3-phenyl-propylamino)-2-(3-fluoro-pyridin-4-yl)-thieno[3,2-d]pyrimidin-7-yl]-but-3-yn-2-ol] stands 100 to 1000 nM; under `CC(C)(O)C#Cc1csc2c(NC[C@@H](N)Cc3ccccc3)nc(-c3ccncc3F)nc12` [compound 509, 4-[4-((S)-2-Amino-3-phenyl-propylamino)-2-(3-fluoro-pyridin-4-yl)-thieno[3,2-d]pyrimidin-7-yl]-2-methyl-but-3-yn-2-ol], 100 to 1000 nM; under `CC(C)(O)C#Cc1csc2c(NC[C@@H](N)Cc3ccccc3)nc(-c3ccncc3)nc12` [compound 510, 4-[4-((S)-2-Amino-3-phenyl-propylamino)-2-pyridin-4-yl-thieno[3,2-d]pyrimidin-7-yl]-2-methyl-but-3-yn-2-ol], less than 100 nM.
For `CC(C)(C)C#Cc1csc2c(NC[C@@H](N)Cc3ccccc3)nc(-c3ccncc3)nc12` [compound 511, (S)-N*1*-[7-(3,3-Dimethyl-but-1-ynyl)-2-pyridin-4-yl-thieno[3,2-d]pyrimidin-4-yl]-3-phenyl-propane-1,2-diamine] the value was 1000 to 10000 nM; for `N[C@H](CNc1nc(-c2ccncc2)nc2c(C#CC3CC3)csc12)Cc1ccccc1` [compound 512, (S)-N*1*-(7-Cyclopropylethynyl-2-pyridin-4-yl-thieno[3,2-d]pyrimidin-4-yl)-3-phenyl-propane-1,2-diamine], less than 100 nM; for `CC(O)C#Cc1csc2c(NC[C@@H](N)Cc3ccccc3)nc(-c3ccncc3)nc12` (stereo partly drawn) [compound 513, 4-[4-((S)-2-Amino-3-phenyl-propylamino)-2-pyridin-4-yl-thieno[3,2-d]pyrimidin-7-yl]-but-3-yn-2-ol], less than 100 nM.
For `CC(C)(O)C#Cc1csc2c(N[C@@H]3CCNC3)nc(-c3ccncc3)nc12` [compound 514, 2-Methyl-4-[2-pyridin-4-yl-4-((R)-pyrrolidin-3-ylamino)-thieno[3,2-d]pyrimidin-7-yl]-but-3-yn-2-ol], the IC50 lay in the range of 100 to 1000 nM.
Under `N[C@H](CNc1nc(-c2ccncc2)nc2c(C#CCO)csc12)Cc1ccccc1` [compound 515, 3-[4-((S)-2-Amino-3-phenyl-propylamino)-2-pyridin-4-yl-thieno[3,2-d]pyrimidin-7-yl]-prop-2-yn-1-ol] stands less than 100 nM; under `CC(C)(N)C#Cc1csc2c(NC[C@@H](N)Cc3ccccc3)nc(-c3ccncc3)nc12` [compound 516, (S)-N*1*-[7-(3-Amino-3-methyl-but-1-ynyl)-2-pyridin-4-yl-thieno[3,2-d]pyrimidin-4-yl]-3-phenyl-propane-1,2-diamine], 1000 to 10000 nM.
`C[C@H](O)C#Cc1csc2c(N[C@@H]3CCNC3)nc(-c3ccncc3)nc12` [compound 517, (S)-4-[2-Pyridin-4-yl-4-((R)-pyrrolidin-3-ylamino)-thieno[3,2-d]pyrimidin-7-yl]-but-3-yn-2-ol]: the IC50 was less than 100 nM.
For the compound `CC(C)C#Cc1csc2c(NC[C@@H](N)Cc3ccccc3)nc(-c3ccncc3)nc12` [compound 518, (S)-N*1*-[7-(3-Methyl-but-1-ynyl)-2-pyridin-4-yl-thieno[3,2-d]pyrimidin-4-yl]-3-phenyl-propane-1,2-diamine], the IC50 lay within 100 to 1000 nM.
For `CC(C)(O)C#Cc1csc2c(N[C@@H]3CCNC3)nc(-c3ccncc3F)nc12` [compound 519, 4-[2-(3-Fluoro-pyridin-4-yl)-4-((R)-pyrrolidin-3-ylamino)-thieno[3,2-d]pyrimidin-7-yl]-2-methyl-but-3-yn-2-ol] the value was 1000 to 10000 nM.
